Data as given in ChEMBL document CHEMBL1149368, “1-Aminomethylbenzocycloalkanes: conformationally restricted hallucinogenic phenethylamine analogues as functionally selective 5-HT2A receptor agonists” (J Med Chem, 2006).

Assays:
[1] = target: 5-hydroxytryptamine receptor 2A (Homo sapiens, UniProt P28223)
Description: Displacement of (+/-)-[125I]DOI from human cloned 5HT2A receptor

[2] = target: T1, 5-hydroxytryptamine receptor 2A (Rattus norvegicus, UniProt P14842)
Description: Displacement of (+/-)-[125I]DOI from rat cloned 5HT2A receptor

[3] = target: T1, 5-hydroxytryptamine receptor 2A; assay: Activity at rat 5HT2A receptor expressed in NIH3T3 cells assessed as stimulation of phospholipase C-mediated IP production; type: functional, cell-based

5-hydroxytryptamine receptor 2A (Homo sapiens, UniProt P28223), sequence (P28223 whole entry): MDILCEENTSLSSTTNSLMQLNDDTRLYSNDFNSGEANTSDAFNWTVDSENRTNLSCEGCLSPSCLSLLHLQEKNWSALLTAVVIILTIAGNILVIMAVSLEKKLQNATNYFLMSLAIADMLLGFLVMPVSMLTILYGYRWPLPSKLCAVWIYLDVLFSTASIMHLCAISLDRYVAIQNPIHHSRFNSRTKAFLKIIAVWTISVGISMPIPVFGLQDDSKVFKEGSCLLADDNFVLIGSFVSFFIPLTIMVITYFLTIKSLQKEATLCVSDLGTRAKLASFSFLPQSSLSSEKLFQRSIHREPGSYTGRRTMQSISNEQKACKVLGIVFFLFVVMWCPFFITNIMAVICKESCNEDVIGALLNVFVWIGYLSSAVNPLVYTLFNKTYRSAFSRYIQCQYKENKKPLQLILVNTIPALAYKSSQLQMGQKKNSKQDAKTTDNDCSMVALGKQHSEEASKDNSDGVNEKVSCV
T1 sequence (P14842 whole entry): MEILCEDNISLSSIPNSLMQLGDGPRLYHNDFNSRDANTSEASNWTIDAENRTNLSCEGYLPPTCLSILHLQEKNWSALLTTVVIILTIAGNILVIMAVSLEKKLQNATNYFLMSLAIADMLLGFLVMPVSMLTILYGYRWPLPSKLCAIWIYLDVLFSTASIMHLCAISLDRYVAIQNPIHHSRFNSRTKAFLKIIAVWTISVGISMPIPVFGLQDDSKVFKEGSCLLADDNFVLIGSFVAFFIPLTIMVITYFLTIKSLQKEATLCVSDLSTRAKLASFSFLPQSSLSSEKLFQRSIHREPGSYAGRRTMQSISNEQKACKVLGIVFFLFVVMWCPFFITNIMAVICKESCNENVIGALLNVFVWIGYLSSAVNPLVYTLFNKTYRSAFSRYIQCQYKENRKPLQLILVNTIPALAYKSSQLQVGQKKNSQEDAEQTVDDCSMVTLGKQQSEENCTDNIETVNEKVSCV

SMILES | Ki [1] [nM] | Ki [2] [nM] | EC50 [3] [nM]
COc1cc(CCN)c(OC)cc1Br | 0.66 | 0.88 | 27
COc1cc(Br)c(OC)c2c1C(CN)CC2 (racemic) | 53 | 47 | 
COc1cc(Br)c2c3c1[C@H](CN)CCC[C@@H]3CO2 (racemic) | 200 | 170 | 
COc1cc(Br)c2c3c1[C@@H](CN)CCC[C@@H]3CO2 (racemic) | 170 | 74 | 
